{"source": "patent US8895579B2", "about": "“Heterotricyclic AMPA receptor antagonists for treatment of epilepsy, pain, and other neurological disorders and diseases” (Northwestern University, priority 2010, dated 2014)", "key": {"[1]": {"system": "AMPA receptor EPSCs, CA1 pyramidal neurons", "experiment": "AMPA receptor EPSCs at Schaffer collateral-CA1 synapses, acute hippocampal slices", "assay_type": "cell-based, mouse", "details": "20 μM", "description": "For recordings from acute hippocampal slices, brains from P15-21 C57Bl/6 mice were sliced transversely (350 μm thickness) in a sucrose slicing solution containing (in mM) 85 NACl, 2.5 KCl, 1.25 NaH2PO4, 25 NaHCO3, 25 glucose, 75 sucrose, 0.5 CaCl2, 4 MgCl2, 0.5 Na ascorbate, 10 μM DL-APV and 100 μM kynurenic acid (pH 7.3). After slicing, the solution was exchanged with an incubation solution containing (in mM) 125 NaCl, 2.4 KCl, 1.2 NaH2PO4, 25 NaHCO3, 25 glucose: 1 CaCl2, 2 MgCl2, 0.5 Na ascorbate, 10 μM DL-APV and 100 μM kynurenic acid (pH 7.3) that was bubbled continuously with CO2-balanced O2 (carbogen). […] Recordings in voltage clamp mode used the CsF/CsCl internal solution and carbogenated external recording solution containing (in mM) 120 NaCl, 2.4 KCl, 2 MgCl2, 1 CaCl2, 25 NaHCO3, 1.2 NaH2PO4, 25 glucose, 10 μM bicuculline methiodide, 50 μM PTX and 50 μM D-APV (pH 7.3). […] NMDA EPSCs were validated by addition of D-APV (50 μM) at the end of each recording. Hippocampal CA1 or CA3 pyramidal cells were voltage clamped at −70 mV and stimulated with a monopolar electrode either the stratum radiatum or stratum lucidum, respectively. IKM compounds were applied for 10 minutes and changes in the peak amplitudes of excitatory post-synaptic currents (EPSCs) and paired-pulse ratios were analyzed during the last two minutes of drug application. EPSC charge transfer, AP frequency, paired-pulse ratio and EPSC peak amplitude were analyzed with Mini-Analysis v6.03 (Synaptosoft, Decatur, Ga.) and Clampfit v10.0 (MDS, Sunnyvale, Calif.) software."}, "[2]": {"target": "T1, GluA2 (Rattus norvegicus, UniProt P19491)", "T1 construct": "expressed in transfected cells; host or cells: HEK293-T/17 (CRL-11268), membranes", "T1 sequence (P19491 22-883 isoform P19491-2 limits assumed)": "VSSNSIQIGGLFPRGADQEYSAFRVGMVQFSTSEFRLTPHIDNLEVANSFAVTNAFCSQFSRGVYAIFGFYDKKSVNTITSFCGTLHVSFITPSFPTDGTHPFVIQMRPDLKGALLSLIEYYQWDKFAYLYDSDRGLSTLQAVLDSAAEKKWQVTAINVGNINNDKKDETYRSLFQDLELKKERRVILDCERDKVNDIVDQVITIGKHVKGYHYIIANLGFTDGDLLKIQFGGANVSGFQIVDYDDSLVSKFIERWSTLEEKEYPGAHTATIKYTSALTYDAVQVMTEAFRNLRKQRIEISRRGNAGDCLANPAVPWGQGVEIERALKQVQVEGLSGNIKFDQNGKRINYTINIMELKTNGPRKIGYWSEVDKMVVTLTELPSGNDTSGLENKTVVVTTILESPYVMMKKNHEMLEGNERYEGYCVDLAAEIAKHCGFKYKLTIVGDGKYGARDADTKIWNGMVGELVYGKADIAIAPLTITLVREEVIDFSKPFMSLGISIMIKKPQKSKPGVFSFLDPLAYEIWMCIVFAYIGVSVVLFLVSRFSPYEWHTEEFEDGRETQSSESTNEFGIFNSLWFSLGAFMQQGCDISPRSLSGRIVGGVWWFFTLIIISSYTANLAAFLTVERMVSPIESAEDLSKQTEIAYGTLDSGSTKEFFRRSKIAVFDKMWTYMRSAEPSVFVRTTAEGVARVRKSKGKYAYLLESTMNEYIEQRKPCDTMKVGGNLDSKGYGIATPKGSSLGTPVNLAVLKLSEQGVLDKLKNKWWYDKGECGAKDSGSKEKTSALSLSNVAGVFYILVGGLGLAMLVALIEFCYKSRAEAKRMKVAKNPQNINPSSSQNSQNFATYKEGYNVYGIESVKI", "experiment": "[3H]-AMPA radioligand binding, membranes of HEK293-T/17 cells expressing GluA2", "details": "100 μM; 20 nM [3H]-AMPA; 1 h at 4° C.", "description": "Radioligand binding. HEK293-T/17 cells were transfected with 5 μg of iGluR cDNA in 100 mm^2 culture dishes. Two days post transfection, the plates were washed twice with ice-cold Dulbecco's phosphate-buffered saline (DPBS) and then incubated with 50 mM Tris (pH 7.4) and 1 mM EDTA for three minutes on ice. Cells were collected and centrifuged for five minutes at 800 g at room temperature. The cell pellet was homogenized in 50 mM Tris (pH 7.4) containing 320 mM sucrose (homogenization buffer, HB) on ice using a glass dounce homogenizer and centrifuged at 4° C. for 10 minutes at 800 g. The supernatant, containing the membrane fragments, was saved and the remaining pellet containing nuclei and unbroken cells was resuspended in HB. This homogenization process was repeated two more times and after collection of the final resulting supernatant, the remaining pellet was discarded. The collected supernatants were centrifuged at 4° C. for 20 minutes at 20000 g and the resulting supernatant was discarded leaving a membrane-containing pellet. […] Non-specific binding was determined as the amount of radioligand bound in the presence of a saturating concentration of glutamate (1 mM). Total binding was determined as the amount of radioligand bound in the absence of any competing ligands minus the non-specific binding. […]"}}}
{"smiles": "O=C(O)C[C@@]12O[C@H]3C=CCN[C@H]3C1CN[C@H]2C(=O)O", "note": "(some centres unmarked) [IKM-159]", "values": [{"measurement": "AMPA EPSC peak amplitude as percent of control peak amplitude", "setting": "[1]", "value": "66±5", "unit": "%"}, {"measurement": "reduction of mean amplitude of AMPA receptor EPSCs", "setting": "[1]", "value": "34±5", "unit": "%"}, {"measurement": "time synaptic amplitudes remained depressed after application", "setting": "[1]", "value": "> 10", "unit": "min"}, {"measurement": "mean AMPA receptor EPSC amplitude in presence of compound", "setting": "[1]; control 560±20 pA", "value": "370±40", "unit": "pA"}, {"measurement": "[3H]AMPA bound as percent of total (specific) binding in absence of competing ligand", "setting": "[2]", "value": "107±5", "unit": "%"}]}
